The text below walks through data of publication PMC7060258 (Scientific Reports, 2020).

No end group written: not given here.

The test system of assay [1] is trypsin. Briefly: Thermodynamic parameters of complexes with trypsin. In kind it is binding. To be noted: complex with trypsin, SPR. The procedure:
The magnitudes of free energy change (∆G) of the complexes differed slightly from the same complexes of HCRG1 and HCRG2 and were lower than for the InhVJ ones.
The study of the interaction of serine proteinases with rHCIQ2c1 and rHCIQ4c7 was performed on SPR biosensor Biacore 3000 (GE Healthcare, USA) running under the program “Biacore 3000 Control Software v.1.0”. The evaluation of data was carried out using “Biacore Evaluation v.4.1”. Peptides were covalent immobilized on carboxymethylated surface of the Biacore CM4 sensor chip (GE Healthcare, USA) activated by EDC/NHS (N-hydroxysuccinimide/1-ethyl-3-(3-dimethylaminopropyl)carbodiimide hydrochloride) mixture by the injection of peptide solution (100 µg/ml) in 10 mM sodium acetate (pH 5.5) during 10 min with flow rate 5 µl/min. Quantities of immobilized peptides were 970 RU (resonance units, 1 RU corresponds 1 pg peptide) for rHCIQ2c1 and 460 RU for rHCIQ4c7. In all of the experiments, the flow cell 1 (Fc1) without the immobilized polypeptides was considered as the reference cell for the correction of the signal responses. […] Further complex breakdown was recorded during at most 10 min. […] Changes in enthalpy (ΔH) and entropic term (−TΔS) were calculated from the linear equation:2 ΔG=ΔH−TΔS, using the liner approximation of temperature dependence of ΔG (Van’t Hoff diagram).

The target of assay [2] is trypsin. As to the kind of experiment: Trypsin inhibitory activity (BAPNA, Dixon). Format: biochemical. As to conditions: BAPNA 0.6 and 1.2 mM, Dixon method; trypsin 208 nM; peptide 0–26.6 µM (rHCIQ2c1), 0–24 µM (rHCIQ4c7); three parallel experiments; error limits 0.1–0.5%. The procedure:
The trypsin inhibitory activity of HCIQ peptides was estimated according to the standard procedure using N-α-benzoyl-D,L-arginine p-nitroanilide (BAPNA) as a substrate. The trypsin inhibition constants of rHCIQ2c1 and rHCIQ4c7 were determined by the method of Dixon[74] using substrate (BAPNA) concentrations of 0.6 and 1.2 mM. The trypsin concentration in the reaction mixture was 208 nM. The range of peptide concentrations was 0–26.6 µM for rHCIQ2c1 and 0–24 µM for rHCIQ4c7. The constants (Ki) were calculated based on the results of three parallel experiments. Computational error limits were in the range of 0.1–0.5%.

One may read the Ki as a dissociation constant, usually derived from enzyme kinetics or from competition with a known ligand.

For the substance “rHCIQ2c1: recombinant Kunitz-peptide of Heteractis crispa, most prevalent isoform, mature peptide 58 aa, expressed in E. coli (IQGNICSEPKKVGRCRGSFPRFYFDSETGKCTPFIYGGCGGNGNNFETLHACRAICRA; ends and bridges not checked; cysteine pairing not given here)”, in the assay on trypsin [1] (10–40 °С, Van't Hoff diagram), the “∆H, enthalpy change” value worked out at 17.28 kcal/mol. The “∆G, Gibbs energy change” value in the assay with trypsin [1] (25 °C, ΔG=RTlnKD) is listed as “–54.70 kJ/mol”.

As for “rHCIQ4c7: recombinant Kunitz-peptide of Heteractis crispa, isoform with the rare substitution Gly17Glu”, the Ki at trypsin [2] is 190 nM. That is a sub-micromolar value.
